Source: patent US10968188B2, “Benzothiazol compounds and methods using the same for treating neurodegenerative disorders” (1ST Biotherapeutics, Inc., priority 2017, dated 2021)

Key:
[1] = tested on: α-synuclein PFF induced PD mice; experiment: Pole test in α-synuclein PFF induced PD mice; type: in vivo
[2] = tested on: Aβ25-35 induced AD mice; experiment: Y-maze spontaneous alternation in Aβ25-35 induced AD mice; type: in vivo; conditions: orally once daily for 10 days; Example 4 1, 3 and 10 mg/kg, nilotinib 3 mg/kg
[3] = tested on: Aβ25-35 induced AD mice; experiment: Step-through passive avoidance (STPA) test in Aβ25-35 induced AD mice; type: in vivo; conditions: orally once daily for 10 days; Example 4 1, 3 and 10 mg/kg, nilotinib 3 mg/kg
[4] = tested on: lipid peroxidation; experiment: Lipid peroxidation in hippocampus homogenates of Aβ25-35 induced AD mice; type: in vivo; conditions: once daily oral dosing of 3 mg/kg and 10 mg/kg
From the text: Y-maze test as a behavioral test was used to assess memory function and the willingness of rodents to explore new environments 10 Days after ICV injection of oligomeric Aβ25-35 peptide, the hippocampus was dissected out. And lipid peroxidation level was quantified in the hippocampus homogenates. ICV injection of oligomeric Aβ25-35 peptide induced lipid peroxidation, a marker for oxidative stress. […] (FIG. 7)

[5] = Oral dose pharmacokinetic study in mice

SMILES	pole climb down time ([1]; 10 mg/kg orally once daily for 5 months)	deficits of alternation behavior (spatial working memory, Y-maze) [2]	increased pole climb down time (sec) by α-synuclein PFF injection ([1]; 0.3, 1, 3 and 10 mg/kg orally once daily for 5 months)	contextual long-term memory deficits (STPA) [3]	lipid peroxidation in hippocampus [4]	PK profile in mice [5]
Cc1cn(-c2cc(NC(=O)c3ccc(C)c(Nc4nccc(-c5cccnc5)n4)c3)cc(C(F)(F)F)c2)cn1 [Nilotinib, nilotinib, reference compound]	slight improvement	partially alleviated				
Cc1ccncc1-c1ccc2nc(NC(=O)[C@@H]3C[C@@H]3F)sc2c1 [Example 4]		very significantly and fully alleviated	recovered by treatment of Example 4 in a dose-dependent manner	very significantly and fully alleviated	completely inhibited	good PK profiles
